Reference: patent US11661405B2, “Crystal forms of tetrahydro-n,n-dimethyl-2,2-diphenyl-3-furanmethanamine hydrochloride, processes of making such forms, and their pharmaceutical compositions” (ANAVEX LIFE SCIENCES CORP., priority 2015, dated 2023)

Columns and labels:
[1] = test system: amyloid toxicity (Aβ25-35); settings: cited from earlier work
[2] = test system: PI3K neuroprotective pathway (P-Akt, P-GSK-3β), Tau, Aβ1-42; settings: cited from earlier work
[3] = storage stability of crystalline forms, checked by PXRD; assay type: physicochemical; settings: 40° C., 75% relative humidity, uncapped vessels, 1 week; forms from SCF in ethanol or dichloromethane
Text: The present disclosure also provides a metabolite of tetrahydro-N,N-dimethyl-2,2-diphenyl-3-furanmethanamine hydrochloride, ANAVEX19-144. […] See for example J. of Psychopharmacol. 25(8), 1101-1117 (2011). Crystalline forms of ANAVEX19-144 were produced by placing the ANAVEX19-144 starting material in a solvent of ethanol or dichloromethane and processed by the supercritical fluid technique. The crystalline form of ANAVEX19-144 produced by the supercritical fluid technique under process parameters of 40 mg/mL ethanol solution, 200 bars of pressure, temperature of 80° C., supercritical CO2 solution with a flow rate of 20 g/min and a TS flow of 0.4 mL/min, was characterized by PXRD, FTIR, DSC, and SEM, as shown in FIGS. 12-15. […] The crystalline form of ANAVEX19-144 produced using the dichloromethane supercritical fluid technique produced a powder with better flow characteristics and improved flow properties for downstream processing. The two crystalline forms of ANAVEX19-144, produced according to the supercritical fluid technique in ethanol or dichloromethane were stored at 40° C. at 75% relative humidity in uncapped vessels for 1 week and then characterized by PXRD to determine stability of the two forms.

Row | stability of the two crystalline forms (PXRD after storage) [3] | Structure (SMILES) | oxidative stress, caspases induction, cellular loss and learning and memory deficits ([1]; mice one week after i.c.v. injection of oligomeric Aβ25-35) | neuroprotective potential against amyloid toxicity ([1]; mice) | Aβ25-35-induced P-Akt decrease and P-GSK-3β increase ([2]; Aβ25-35-induced) | Aβ25-35-induced endogenous Aβ1-42 seeding ([2]; Aβ25-35-induced) | hyperphosphorylation of Tau on physiological epitopes (AT-8 clone) and pathological epitopes (AT-100 clone) ([2]; in the dose-range tested)
1 | – | CN(C)CC1CCOC1(c1ccccc1)c1ccccc1.Cl (stereo not drawn) [ANAVEX2-73, tetrahydro-N,N-dimethyl-2,2-diphenyl-3-furanmethanamine hydrochloride] | attenuating | shows neuroprotective potential against amyloid toxicity | blocked | decrease | attenuated
2 | stable under the conditions tested | CNCC1CCOC1(c1ccccc1)c1ccccc1.Cl (stereo not drawn) [ANAVEX19-144] | – | – | – | – | –
